Patent publication US8835458B2 (Hanmi Science Co., Ltd, priority 2010, dated 2014)
Where a name gives a salt, the structure may show the parent alone. Read-outs that look alike come from different tables or passages of the source.

What was measured:
caspase 3/7 = assay: Evaluation of caspase activity (Caspase-Glo 3/7 Assay Kit); assay type: cell-based; conditions: MDA-MB-231 cells, 12 hours, compared to untreated MDA-MB-231 cells; 0.5, 1, 5 μM tested
Method: (§1) MDA-MB-231 breast cancer cells (ATCC #HTB-26) were plated in 96-well plates at a density of 1.0 1.5×10^4 cells/well. […] Then, media were removed and the cells were washed two times with PBS at 4° C. The cells were treated with a solution of the analysis samples and media (1:1) in an amount of 140 μL/well using Caspase-GloTM 9 Assay Kit (Cat#. […]; Promega, USA) and Caspase-GloTM 3/7 Assay Kit (Cat#. […]; Promega, USA). After the cells were incubated at 37° C. for 2 hours, luminescence was measured using InfiniteTM M1000 multi reader (Tecan). […] The values were represented as “***” for six fold or more, “**” for 4 fold to below 6 fold, and “*” for 1 fold to below 4 fold, as compared to that of untreated, normal MDA-MB-231 breast cancer cell lines.

caspase 9 = assay: Evaluation of caspase activity (Caspase-Glo 9 Assay Kit); assay type: cell-based; conditions: MDA-MB-231 cells, 16 hours, compared to untreated MDA-MB-231 cells; 0.5, 1, 5 μM tested
Method: as §1

[1] = test system: MDA-MB-231 breast cancer cell lines; assay: Evaluation of inhibition on cell growth (MTS); assay type: cell-based; conditions: Homo sapiens, MDA-MB-231, 120 hours
Summary of the method: (§2)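 Cells seeded at 3,000˜5,000 cells/100 μL, grown 24 h at 37° C (MDA-MB-231 under atmospheric conditions), then exposed to 10 μM˜0.1 nM compound. MDA-MB-231 cultured 120 h, read by MTS at 490 nm; fibroblasts cultured 72 h, TCA-fixed, SRB-stained, read at 540 nm. GI50 from growth relative to untreated and medium-only cells.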

[2] = Toxicity to normal cells (SRB); assay type: cell-based, mouse; conditions: mouse, Balb/c3t3 fibroblasts (normal cell line), read-out: BalB/C (GI50)
Summary of the method: as §2

[3] = Toxicity to normal cells (SRB); assay type: cell-based, human; conditions: human, Hs27 fibroblasts (normal cell line)
Summary of the method: as §2

Structure (SMILES) | Caspase-3 (caspase 3/7) | Caspase-9 (caspase 9) | GI50 [1] | GI50 at 72 h [2] | GI50 at 72 h [3]
CN[C@@H](C)C(=O)N[C@H](C(=O)N1CCC[C@H]1C(=O)Nc1cc2c(Nc3ccccc3F)ncnc2cc1OC)C(C)(C)C.Cl [Example 10, (S)-1-((S)-3,3-dimethyl-2-((S)-2-(methylamino)propanamido)butanoyl)-N-(4-(2-fluorophenylamino)-7-methoxyquinazolin-6-yl)pyrrolidine-2-carboxamide hydrochloride] | *** (six fold or more) | *** (six fold or more) | ≤ 0.1 µM | > 10 µM | > 10 µM
CN[C@@H](C)C(=O)N[C@H](C(=O)N1CCC[C@H]1C(=O)Nc1cc2c(NCc3ccccc3)ncnc2cc1OC)C(C)(C)C.Cl [Example 18, (S)—N-(4-benzylamino-7-methoxyquinazolin-6-yl)-1-((S)-3,3-dimethyl-2-((S)-2-(methylamino)propanamido)butanoyl)pyrrolidine-2-carboxamide hydrochloride] | *** (six fold or more) | *** (six fold or more) | ≤ 0.1 µM | > 10 µM | > 10 µM
CN[C@@H](C)C(=O)N[C@H](C(=O)N1CCC[C@H]1C(=O)Nc1cc2c(Nc3ccc(F)c(Cl)c3F)ncnc2cc1OC)C1CCCCC1.Cl [Example 15, (S)—N-(4-(3-chloro-2,4-difluorophenylamino)-7-methoxyquinazolin-6-yl)-1-((S)-2-cyclohexyl-2-((S)-2-(methylamino)propanamido)acetyl)pyrrolidine-2-carboxamide hydrochloride] | *** (six fold or more) | *** (six fold or more) | ≤ 0.1 µM | > 10 µM | > 10 µM
CN[C@@H](C)C(=O)N[C@H](C(=O)N1CCC[C@H]1C(=O)Nc1cc2c(Nc3cccc(Cl)c3F)ncnc2cc1OCCOC)C(C)(C)C.Cl [Example 2, (S)—N-(4-(3-chloro-2-fluorophenylamino)-7-(2-methoxyethoxy)quinazolin-6-yl)-1-((S)-3,3-dimethyl-2-((S)-2-(methylamino)propanamido)butanoyl)pyrrolidine-2-carboxamide hydrochloride] | ** (4 fold to below 6 fold) | * (1 fold to below 4 fold) | 0.1 to 1 µM | > 10 µM | > 10 µM
CN[C@@H](C)C(=O)N[C@H](C(=O)N1CCC[C@H]1C(=O)Nc1cc2c(Nc3ccc(Cl)c(Cl)c3F)ncnc2cc1OC)C(C)(C)C.Cl [Example 8, (S)—N-(4-(3,4-dichloro-2-fluorophenylamino)-7-methoxyquinazolin-6-yl)-1-((S)-3,3-dimethyl-2-((S)-2-(methylamino)propanamido)butanoyl)pyrrolidine-2-carboxamide hydrochloride] | *** (six fold or more) | *** (six fold or more) | ≤ 0.1 µM | > 10 µM | > 10 µM
CN[C@@H](C)C(=O)N[C@H](C(=O)N1CCC[C@H]1C(=O)Nc1cc2c(Nc3ccc(Br)cc3F)ncnc2cc1OC)C(C)(C)C.Cl [Example 9, (S)—N-(4-(4-bromo-2-fluorophenylamino)-7-methoxyquinazolin-6-yl)-1-((S)-3,3-dimethyl-2-((S)-2-(methylamino)propanamido)butanoyl)pyrrolidine-2-carboxamide hydrochloride] | *** (six fold or more) | *** (six fold or more) | ≤ 0.1 µM | > 10 µM | > 10 µM
CN[C@@H](C)C(=O)N[C@H](C(=O)N1CCC[C@H]1C(=O)Nc1cc2c(Nc3ccc(F)c(Cl)c3F)ncnc2cc1OC)C(C)(C)C.Cl [Example 1, (S)—N-(4-(3-chloro-2,4-difluorophenylamino)-7-methoxyquinazolin-6-yl)-1-((S)-3,3-dimethyl-2-((S)-2-(methylamino)propanamido)butanoyl)pyrrolidine-2-carboxamide hydrochloride] | *** (six fold or more) | *** (six fold or more) | ≤ 0.1 µM | > 10 µM | > 10 µM
CN[C@@H](C)C(=O)N[C@H](C(=O)N1CCC[C@H]1C(=O)Nc1cc2c(Nc3cccc(Cl)c3F)ncnc2cc1OC)C(C)(C)C.Cl [Example 7] | *** (six fold or more) | *** (six fold or more) |  |  | 
CN[C@@H](C)C(=O)N[C@H](C(=O)N1CCC[C@H]1C(=O)Nc1cc2c(Nc3ccccc3)ncnc2cc1OC)C(C)(C)C.Cl [Example 11, (S)—N-(4-phenylamino-7-methoxyquinazolin-6-yl)-1-((S)-3,3-dimethyl-2-((S)-2-(methylamino)propanamido)butanoyl)pyrrolidine-2-carboxamide hydrochloride] | *** (six fold or more) | *** (six fold or more) | ≤ 0.1 µM | > 10 µM | > 10 µM
CN[C@@H](C)C(=O)N[C@H](C(=O)N1CCC[C@H]1C(=O)Nc1cc2c(Nc3ccc(Oc4ccc(C)nc4)c(Cl)c3)ncnc2cc1OC)C(C)(C)C.Cl [Example 19, (S)—N-(4-(3-chloro-4-(6-methylpyridin-3-yloxy)phenylamino)-7-methoxyquinazolin-6-yl)-1-((S)-3,3-dimethyl-2-((S)-2-(methylamino)propanamido)butanoyl)pyrrolidine-2-carboxamide hydrochloride] | *** (six fold or more) | *** (six fold or more) | ≤ 0.1 µM | > 10 µM | > 10 µM
CN[C@@H](C)C(=O)N[C@H](C(=O)N1CCC[C@H]1C(=O)Nc1cc2c(Nc3ccc(F)c(F)c3F)ncnc2cc1OC)C(C)(C)C.Cl [Example 17, (S)-1-((S)-3,3-dimethyl-2-((S)-2-(methylamino)propanamido)butanoyl)-N-(7-methoxy-4-(2,3,4-trifluorophenylamino)quinazolin-6-yl)pyrrolidine-2-carboxamide hydrochloride] | *** (six fold or more) | *** (six fold or more) | ≤ 0.1 µM | > 10 µM | > 10 µM
CN[C@@H](C)C(=O)N[C@H](C(=O)N1CCC[C@H]1C(=O)Nc1cc2c(Nc3ccc(Cl)cc3F)ncnc2cc1OC)C(C)(C)C [Example 29, (S)—N-(4-(4-chloro-2-fluorophenylamino)-7-methoxyquinazolin-6-yl)-1-((S)-3,3-dimethyl-2-((S)-2-(methylamino)propanamido)butanoyl)pyrrolidine-2-carboxamide hydrochloride] |  |  | ≤ 0.1 µM | > 10 µM | > 10 µM
CN[C@@H](C)C(=O)N[C@H](C(=O)N1CCC[C@H]1C(=O)Nc1cc2c(Nc3ccc(F)c(Cl)c3)ncnc2cc1OC)C(C)(C)C [Example 41, (S)—N-(4-(3-chloro-4-fluorophenylamino)-7-methoxyquinazolin-6-yl)-1-((S)-3,3-dimethyl-2-((S)-2-(methylamino)propanamido)butanoyl)pyrrolidine-2-carboxamide hydrochloride] |  |  | ≤ 0.1 µM | > 10 µM | > 10 µM
CN[C@@H](C)C(=O)N[C@H](C(=O)N1CCC[C@H]1C(=O)Nc1cc2c(Nc3ccc(OCc4cccc(F)c4)c(Cl)c3)ncnc2cc1OC)C(C)(C)C [Example 37, (S)—N-(4-(3-chloro-4-(3-fluorobenzyloxy)phenylamino)-7-methoxyquinazolin-6-yl)-1-((S)-3,3-dimethyl-2-((S)-2-(methylamino)propanamido)butanoyl)pyrrolidine-2-carboxamide hydrochloride] |  |  | ≤ 0.1 µM | > 10 µM | > 10 µM
CN[C@@H](C)C(=O)N[C@H](C(=O)N1CCC[C@H]1C(=O)Nc1cc2c(Nc3ccc(F)cc3)ncnc2cc1OC)C(C)(C)C [Example 55, (S)-1-((S)-3,3-dimethyl-2-((S)-2-(methylamino)propanamido)butanoyl)-N-(4-(4-fluorophenylamino)-7-methoxyquinazolin-6-yl)pyrrolidine-2-carboxamide] |  |  | ≤ 0.1 µM | > 10 µM | > 10 µM
CN[C@@H](C)C(=O)N[C@H](C(=O)N1CCC[C@H]1C(=O)Nc1cc2c(Nc3ccc4c(c3)OCO4)ncnc2cc1OC)C(C)(C)C [Example 61, (S)—N-(4-(benzo[d][1,3]dioxol-5-ylamino)-7-methoxyquinazolin-6-yl)-1-((S)-3,3-dimethyl-2-((S)-2-(methylamino)propanamido)butanoyl)pyrrolidine-2-carboxamide] |  |  | ≥ 1 µM | > 10 µM | > 10 µM
CN[C@@H](C)C(=O)N[C@H](C(=O)N1CCC[C@H]1C(=O)Nc1cc2c(Nc3cccc4ncccc34)ncnc2cc1OC)C(C)(C)C [Example 63, (S)-1-((S)-3,3-dimethyl-2-((S)-2-(methylamino)propanamido)butanoyl)-N-(7-methoxy-4-(quinoline-5-ylamino)quinazolin-6-yl)pyrrolidine-2-carboxamide hydrochloride] |  |  | ≤ 0.1 µM | > 10 µM | > 10 µM
